Tests used:
[1] = Plasma protein binding (equilibrium dialysis), mouse; type: in vitro ADME; settings: pH 7.4, 37° C.
Protocol: (§1) Below is provided the procedure for measuring plasma protein binding (using an equilibrium dialysis method). 745 μL of plasma was transferred into a 2 ml micro centrifuge tube. To that 5 μL of Compound A1 (150 μM) was added. Samples were mixed in the table top vortexer for 2 minutes. 50 μL plasma (n=2) was transferred in a pre-labeled 1.5 mL micro centrifuge tube treated as 0 hour sample.
(§2) The remaining 650 μL plasma sample were incubated for 30 minutes at 37° C. in a water bath. After 30 minute incubation, 50 μL plasma (n=2) was removed in a pre-labelled 1.5 mL micro centrifuge tube treated as 0.5 hour sample. 200 μL of the plasma sample (n=2) was transferred into the sample chamber which was indicated by the red ring. The red insert was placed into the base plate and 350 μL of buffer was transferred into the buffer chamber. Plates were incubated at 37° C. at approximately 100 RPM on an orbital shaker or 20 RPM on an up-and-down shaker for 4 hours. 50 μL of post dialysis-sample from the buffer and the plasma chambers were transferred into a pre-labelled micro centrifuged tube. 50 μL of plasma was added to the buffer samples and an equal volume of buffer (KH2PO4 Buffer pH 7.4) to the collected plasma samples. 150 μL of methanol containing internal standard (Tolbutamide 250 ng/ml) was added to precipitate the protein and release compound. […]

[2] = Plasma protein binding (equilibrium dialysis), rat; type: in vitro ADME; settings: pH 7.4, 37° C.
Protocol: as §1, §2

[3] = Plasma protein binding (equilibrium dialysis), monkey; type: in vitro ADME; settings: pH 7.4, 37° C.
Protocol: as §1, §2

[4] = target: PI3Kβ (Homo sapiens, UniProt P42338); test: Assay 1: Fluorescent (HTRF) determination of PI3 kinase enzyme activity, PI3Kβ; type: biochemical
From the text: Phosphoinositide 3 kinases (PI3K) belong to a class of lipid kinases that play a critical role in the regulation of several key cellular processes. The PI3K are capable of phosphorylating the 3-hydroxy position of phosphoinositols thereby generating second messengers involved in downstream signaling events. The homogenous time resolved fluorescence (HTRF) assay allows detection of 3,4,5-triphosphate (PIPS) formed as a result of phosphorylation of phosphotidylinositol 4,5-biphosphate (PIP2) by PI3K isoforms such as α, β, γ or δ.
PI3K isoform activity for α, β, γ or δ was determined using a PI3K human HTRF™ Assay Kit (Millipore, Billerica, Mass.) with modifications. All incubations were carried out at room temperature. 0.5 μl of 40× inhibitor (in 100% DMSO) or 100% DMSO were added to each well of a 384-well white plate (Greiner Bio-One, Monroe, N.C.) containing 14.5 μl 1× reaction buffer/PIP2 (10 mM MgCl2, 5 mM DTT, 1.38 μM PIP2) mix with or without enzyme, followed by 5 μl/well of 400 μM ATP and incubated for an additional 30 minutes. The reaction was terminated by adding 5 μl/well stop solution (Millipore, Billerica, Mass.). 5 μl of detection mix (Millipore, Billerica, Mass.) was then added to each well and incubated for 6-18 hours in the dark. HRTF ratio was measured on a microplate reader (BMG Labtech., Germany) at an excitation wavelength of 337 nm and emission wavelengths of 665 and 615 nm with an integration time of 400 msec counting delay of 50 msec.

[5] = test system: T-lymphoma (MOLT-4, Jurkat, CCRF-CEM, Hut-78 and HuT-102) cells; test: Assay 2: In vitro cell proliferation assay in leukemic cell lines (MTT); type: cell-based
Protocol: Growth inhibition assays were carried out using 10% FBS supplemented media. Cells were seeded at a concentration of 5000-20,000 cells/well in a 96-well plate. Test compounds at a concentration ranging from 0.01 to 10000 nM were added after 24 hours. Growth was assessed using the 3-[4,5-dimethylthiazol-2-yl]-2,5-diphenyltetrazolium bromide (MTT) dye reduction test at 0 hour (prior to the addition of the test compound) and 72 hours after the addition of test compound. Absorbance was read on a Fluostar Optima (BMG Labtech, Germany) at a wavelength of 450 nm. Data were analysed using GraphPad Prism and percent inhibition due to the test compound compared to the control was calculated accordingly.

[6] = test system: Female Wistar rats; test: Assay 7: Lipopolysaccharide induced pulmonary neutrophilia in female Wistar rat model; type: in vivo; settings: 10 mg/kg, oral, LPS intratracheally, BAL fluid 6 hours after LPS
Protocol: After the quarantine period, fasted animals were randomized and divided into various groups depending on their body weights. The test compound (Compound A1) was prepared as a suspension in a vehicle consisting of 0.5% methylcellulose in which Tween 80 as a suspending agent. The compound or vehicle was administered by oral gavage at a volume of 10 mL/kg. Female Wistar rats were anaesthetized with ketamine and LPS solution was administered intratracheally one hour after compound administration at a dose of 1 mg/kg. 6 hours after LPS instillation, animals were exsanguinated under anaesthesia, and then the trachea was cannulated and the lungs were lavaged with 5 ml aliquots of heparinised PBS (1 unit/ml) four times through a tracheal cannula (total volume 20 mL). Bronchoalveolar lavage (BAL) fluid was stored at 2-8° C. until assayed for total cell and differential leukocyte count. Bronchioalveolar fluid was centrifuged (500×g for 10 minutes) and the resulting cell pellet was resuspended in 0.5 ml of heparinised saline. The total numbers of white blood cells were determined in BAL fluid or blood by using a blood cell counter and was adjusted to 1×10^6 cell/ml. Differential cell count was calculated manually. […] The number of each cell type among 300 white blood cells in the cell smear was determined and expressed as a percentage. The number of […] in each BALf or blood was calculated.

[7] = test system: Female Wistar rats; test: Assay 11: Collagen induced arthritis (CIA) in Wistar rats; type: in vivo; settings: rat CIA, dosed therapeutically, 10 mg/kg/QD

PI3Kβ, sequence (P42338 whole entry, canonical isoform): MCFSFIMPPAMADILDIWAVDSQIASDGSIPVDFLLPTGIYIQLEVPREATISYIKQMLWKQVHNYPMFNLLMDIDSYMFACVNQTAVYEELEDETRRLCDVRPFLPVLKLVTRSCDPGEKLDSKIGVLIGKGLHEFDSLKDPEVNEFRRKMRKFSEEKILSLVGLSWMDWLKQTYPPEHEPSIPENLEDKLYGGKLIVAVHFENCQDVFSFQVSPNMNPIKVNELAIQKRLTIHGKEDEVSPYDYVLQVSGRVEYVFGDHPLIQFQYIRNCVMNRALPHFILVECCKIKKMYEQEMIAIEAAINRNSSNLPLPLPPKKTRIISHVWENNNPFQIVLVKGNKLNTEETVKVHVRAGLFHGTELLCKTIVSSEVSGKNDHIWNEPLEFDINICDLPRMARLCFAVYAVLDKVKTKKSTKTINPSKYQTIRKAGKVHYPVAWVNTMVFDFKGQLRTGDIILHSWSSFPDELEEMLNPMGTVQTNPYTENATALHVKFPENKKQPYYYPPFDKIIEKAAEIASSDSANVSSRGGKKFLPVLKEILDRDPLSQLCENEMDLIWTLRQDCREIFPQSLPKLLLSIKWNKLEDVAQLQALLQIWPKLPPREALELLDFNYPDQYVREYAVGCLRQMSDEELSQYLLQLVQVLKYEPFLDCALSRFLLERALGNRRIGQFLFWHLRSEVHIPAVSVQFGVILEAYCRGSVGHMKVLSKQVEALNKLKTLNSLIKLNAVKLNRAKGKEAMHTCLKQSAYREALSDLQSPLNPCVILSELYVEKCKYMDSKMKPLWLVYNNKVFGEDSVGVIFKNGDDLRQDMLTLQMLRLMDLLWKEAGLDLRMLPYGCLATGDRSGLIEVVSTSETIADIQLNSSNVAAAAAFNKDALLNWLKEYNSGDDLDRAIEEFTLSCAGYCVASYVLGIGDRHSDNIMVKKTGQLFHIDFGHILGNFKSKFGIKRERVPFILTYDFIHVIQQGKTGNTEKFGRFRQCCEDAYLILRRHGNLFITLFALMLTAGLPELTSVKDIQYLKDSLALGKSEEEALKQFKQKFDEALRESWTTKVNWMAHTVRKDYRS
PI3Kβ, sequence (P27986 whole entry partner, canonical isoform): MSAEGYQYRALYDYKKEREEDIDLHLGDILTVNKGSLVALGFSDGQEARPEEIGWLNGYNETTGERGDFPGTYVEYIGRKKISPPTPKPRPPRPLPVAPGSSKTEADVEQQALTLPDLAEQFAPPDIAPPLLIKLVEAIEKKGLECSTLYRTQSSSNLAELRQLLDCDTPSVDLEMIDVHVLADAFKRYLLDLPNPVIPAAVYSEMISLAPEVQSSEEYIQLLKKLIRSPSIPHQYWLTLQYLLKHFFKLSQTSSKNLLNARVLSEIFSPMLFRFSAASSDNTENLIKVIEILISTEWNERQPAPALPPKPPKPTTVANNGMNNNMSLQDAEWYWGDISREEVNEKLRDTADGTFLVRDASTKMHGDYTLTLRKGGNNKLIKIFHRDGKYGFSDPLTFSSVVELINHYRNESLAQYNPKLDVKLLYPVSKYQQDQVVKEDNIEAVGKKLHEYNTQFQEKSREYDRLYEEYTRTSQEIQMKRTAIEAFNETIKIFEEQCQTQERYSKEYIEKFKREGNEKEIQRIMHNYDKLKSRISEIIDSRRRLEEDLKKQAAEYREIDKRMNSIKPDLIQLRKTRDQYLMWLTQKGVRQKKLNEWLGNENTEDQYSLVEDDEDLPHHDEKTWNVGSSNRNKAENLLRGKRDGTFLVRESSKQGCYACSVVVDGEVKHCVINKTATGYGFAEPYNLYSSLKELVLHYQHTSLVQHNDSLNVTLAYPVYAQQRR

fraction unbound at 4 h, 1 μM [1]: 0.0239
fraction unbound at 4 h, 1 μM [2]: 0.0096
fraction unbound at 4 h, 1 μM [3]: 0.0529
inhibition at 1 µM [4]: 46.8%
IC50 ([4]; HTRF enzyme assay): 1360 nM
Fold-Selectivity PI3Kβ ([4]; selectivity profile, enzyme IC50): > 45 fold
GI50 ([5]; MOLT-4, Jurkat, CCRF-CEM, Hut-78 and HuT-102, MTT, 72 hours, range over the cell lines, read-out: GI50, reduction in T-lymphoma cell viability): 2500 to 12800 nM
SMILES: COc1ccc(-c2nn([C@@H](C)c3oc4cccc(F)c4c(=O)c3-c3cccc(F)c3)c3ncnc(N)c23)cc1NS(C)(=O)=O [Compound A1, (S)—N-(5-(4-amino-1-(1-(5-fluoro-3-(3-fluorophenyl)-4-oxo-4H-chromen-2-yl)ethyl)-1H-pyrazolo[3,4-d]pyrimidin-3-yl)-2-methoxyphenyl)methanesulfonamide]
cytotoxicity over the 72 hour incubation period ([5]; T-lymphoma cell lines, 72 hour incubation): did not display any apparent cytotoxicity
inhibition of neutrophil infiltration into the lungs compared to the control group [6]: 65.29%
inhibition of cartilage (histopathology of all the hind and fore paws) [7]: 46.51%
inhibition of inflammation (histopathology of all the hind and fore paws) [7]: 58.3%
inhibition of pannus (histopathology of all the hind and fore paws) [7]: 49.18%
reducing ankle diameter [7]: significant efficacy
reducing the average paw volumes of both the hind paws [7]: significant efficacy
reduction of the clinical score ([7]; prophylactic and therapeutic paws): significant efficacy

Source: US20190202836A1, “SELECTIVE DUAL INHIBITORS OF PI3 DELTA AND GAMMA PROTEIN KINASES” (Rhizen Pharmaceuticals SA, priority 2014, published 2019)
